Results: patent publication US20100179225A1, “POI Prevention” (CYTOKINE PHARMASCIENCES, INC., priority 2008, published 2010)

What was measured:
[1] = system: jejunal circular smooth muscle; test: In vitro jejunal circular smooth muscle contractility (bethanechol) after IM, mouse; format: in vivo, mice
Method: Jejunal smooth muscle activity was measured as previously described (Kalff J C, Schraut W H, Simmons R L et al. Surgical manipulation of the gut elicits an intestinal muscularis inflammatory response resulting in postsurgical ileus. Ann Surg 1998; 228:652-663). Briefly, after preparation, mucosa-free circular ME strips were equilibrated in KRB perfused organ chambers at 37° C. for 1 hour. One end of each strip was tied to a fixed post and the other attached to an isometric force transducer (ADI, Heidelberg, Germany) connected to the bridge amplifier and powerlab system (ADI). Dose-response curves of muscle contraction were generated by exposing the muscle strips to increasing concentrations of the muscarinic agonist bethanechol (0.1-300 μmol/L) for 10 minutes, followed by a wash-period (KRB) of 10 minutes. The contractile response was analyzed with the ADI Chart© software and the contractions were calculated as grams per square millimeter per second by conversion of the weight and length of the strip to square millimeters of tissue.

[2] = system: nitric oxide (NO) production in ME; test: Nitric oxide release from cultured mouse ME (Griess reaction) after IM; format: in vivo, mice
Method: […] Control animals received CNI-1493 (5 mg/kg) intravenously or CPSI-2364 orally (1 mg/kg or 0.1 mg/kg), but were not operated.
After preoperative i.v. or oral drug or placebo administration animals underwent IM. Control animals received CNI-1493 or placebo i.v. or orally but were not operated.
Total ME from small intestine was isolated 24 h after operation as described above and then cut into small pieces and washed for 30 minutes in PBS containing a penicillin/streptomycin (200U/200 μg) mixture. Aliquots of ˜50 mg were incubated in 1 mL of DMEM at 37° C. and 5% CO2 for further 24 hours and tissue culture supernatants were frozen in liquid nitrogen. The muscle tissue was blotted dry, and the exact weight was measured. To quantify the generation of NO from intestinal smooth muscle preparations, nitrite production was measured by the Griess reaction as described previously (Kalff J C, Schraut W H, Billiar T R et al. Role of inducible nitric oxide synthase in postoperative intestinal smooth muscle dysfunction in rodents. Gastroenterology 2000; 118:316-327). In brief, supernatant from the tissue culture was mixed with an equal volume of Griess reagent (0.1% N-(1-napthyl)ethyl-enediamine dihydrochloride and 1% sulfanilamide in 6% phosphoric acid; 1:1) and incubated for 10 minutes. The absorbance at 550 nm was measured with a microplate reader and compared with standard dilutions of sodium nitrite. Total nitrite produced was normalized to 1 g of muscle tissue.

mice [3] = test: In vivo colonic transit (glass ball excretion time) after IM, mouse
Method: Colonic transit measurement was performed 24 h hours after operation by inserting a 2 mm glass ball with a metal rod 3 cm into the colon. Before insertion colonic patency was ensured by exclusively inserting the rod 3 cm into the colon. Mice were weakly anesthetized with isofluran for the whole procedure and wake up within 40 seconds after glass ball insertion. Colonic transit time was calculated as the period between insertion and excretion of the ball.

neutrophils in ME = test: Neutrophil infiltration into mouse ME (myeloperoxidase staining of whole mounts) after IM; format: in vivo, mice; details: for number of neutrophils in ME: 24 hours after IM
Description: The small bowel of the animals was subjected to a standardized, surgical manipulation (IM) as described previously (Kalff J C, Schraut W H, Simmons R L et al. Surgical manipulation of the gut elicits an intestinal muscularis inflammatory response resulting in postsurgical ileus. Ann Surg 1998; 228:652-663; Wehner S, Schwarz N T, Hundsdoerfer R et al. Induction of IL-6 within the rodent intestinal muscularis after intestinal surgical stress. Surgery 2005; 137:436-446). In brief, after anesthesia a midline abdominal incision was made into the peritoneal cavity. The entire small bowel was eventuated and manipulated with standardized moderate intensity using two moist cotton applicators as described previously. After IM, the laparotomy was closed by one layer of continuous suture, except when probe sampling was conducted within 20 minutes after surgery. These animals were held in anesthesia and the abdomen was closed by a clamp and protected with sterile gauze. All other animals recovered rapidly from the bowel manipulation procedure. Control animals exclusively underwent laparotomy without eventration and IM (sham operation).
Animals within examples referring to FIGS. 2-9 were treated 90 minutes before operation with 0 mg/kg (placebo group), or 5 mg/kg bodyweight CNI-1493. In further experiments in rats or mice 0.1, 1.0 or 10 mg/kg CPSI-2364 were administered 90 minutes before surgical procedure via oral route. Oral (p.o.) administration was performed via a gastric tube. CNI-1493 and CPSI-2364 were dissolved in 2.5% mannitol. Placebo and CNI-1493 or CPSI-2364 groups were subdivided in two further groups. One was sham operated (laparotomy without IM) while the other underwent laparotomy followed by IM.
Specimens for histochemical analysis were prepared 24 h after operation and performed on whole mounts of the distal jejunum, as described before in detail (n=5-7 each group) 9. In brief, jejunal segments were opened, immersed in chilled Krebs-Ringer buffer (KRB) and fixed in 100% ethanol for 10 minutes. After washing with KRB, mucosa and submucosa were stripped off and ME whole mounts were used for detection of myeloperoxidase (MPO) positive cells (neutrophils). Thereto, freshly prepared whole mounts were stained with Hanker-Yates reagent as described previously (Wehner S, Schwarz N T, Hundsdoerfer R et al. Induction of IL-6 within the rodent intestinal muscularis after intestinal surgical stress. Surgery 2005; 137:436-446). MPO+-cells were counted under a microscope (TE-2000, Nikon, Duesseldorf, Germany) in 5 randomly chosen areas in each specimen.

mice [4] = test: In vivo gastrointestinal transit (FITC-dextran geometric center) after IM, mouse
Method: Gastrointestinal transit was measured 23.5 hours postoperatively by evaluating the intestinal location of a fluorochrome labeled dextran (FITC—dextran, 70.000 MW, Molecular Probes, Netherlands) (n=10 each). Thereto, 22 hours after the bowel manipulation, animals were lightly anesthetized and given FITC-dextran (200 μl of 6.25 mg/ml stock solution) via a gastric tube into the stomach. Mice were killed 90 minutes after administration, the entire gastrointestinal tract was divided into 15 segments, opened and FITC-dextran was washed out by PBS. Fluorescence of segment washes was read at 494 nm/521 nm wavelength in fluorescence reader (Tecan, Crailsheim, Germany). The data were expressed as the percentage of activity per segment. Gastrointestinal transit was calculated as the geometric center (GC) of distribution of fluorescence marker using this formula:
GC=Σ(% of total fluorescent signal per segment*segment number)/100.

Row | SMILES | suppression of bethanechol stimulated muscle contractility after IM ([1]; 5 mg/kg i.v. preoperative, 24 h after IM) | NO production (nitrite release) from ME ([2]; 5 mg/kg i.v. preoperative, ME taken 24 h after IM, cultured 24 h) | NO production (nitrite release) from ME ([2]; 5 mg/kg i.v., non-operated animals (basal)) | colonic transit time (mice [3]; 5 mg/kg intravenously preoperative, 24 hours after IM) | colonic transit time (mice [3]; unoperated controls of the CNI-1493 group (S-CTL, FIG. 8E)) | number of neutrophils in ME (neutrophils in ME; 5 mg/kg i.p. preoperative) | number of neutrophils in ME (neutrophils in ME; 5 mg/kg i.v. preoperative) | neutrophil infiltration, reduction (neutrophils in ME; intravenous treatment, after IM) | gastrointestinal transit, geometric center (GC) (mice [4]; 5 mg/kg i.p. preoperative, IM) | gastrointestinal transit, geometric center (GC) (mice [4]; 5 mg/kg i.p., sham operated) | gastrointestinal transit, geometric center (GC) (mice [4]; 5 mg/kg i.v. 90 minutes before operation, IM) | gastrointestinal transit, geometric center (GC) (mice [4]; 5 mg/kg i.v., sham operated) | gastrointestinal transit, geometric center (GC) (mice [4]; given immediately before laparotomy and IM (results not shown)) | suppression of bethanechol stimulated muscle contractility after IM ([1]; mice, p.o. preoperative (FIG. 13)) | nitric oxide and its metabolites in muscularis culture supernatant vs Sham+Placebo ([2]; mice, 10 mg/kg orally 90 minutes or intravenously 60 minutes before operation, IM (FIG. 27)) | colonic transit, excretion time of the ball vs Sham+Placebo (mice [3]; mice, 0.1, 1 or 10 mg/kg orally 90 minutes, 6 hours or 16 h before operation, IM (FIG. 26)) | neutrophils in ME compared to the placebo IM group (neutrophils in ME; mice, p.o. preoperative, 24 hours after IM (FIG. 11)) | geometric centers of FITC dextran distribution vs Sham+Placebo (mice [4]; mice, 0.1, 1 or 10 mg/kg orally 90 minutes, 6 hours or 16 h before operation, IM (FIG. 25)) | gastrointestinal transit (GIT) (mice [4]; mice, p.o. preoperative, IM (FIG. 14))
1 | C/C(=N\N=C(N)N)c1cc(NC(=O)CCCCCCCCC(=O)Nc2cc(/C(C)=N/N=C(N)N)cc(/C(C)=N/N=C(N)N)c2)cc(/C(C)=N/N=C(N)N)c1.Cl.Cl.Cl.Cl [CNI-1493] | completely abrogated | 333 ± 198 µM | 45.5 ± 52.2 µM | 166 ± 87 s | 118 ± 68 s | 36.1±10.7 | 52.1±15.5 | reduced by only one third | 10.96±1.71 | 9.81±0.92 | 8.97±0.60 | 11.98±0.73 | 5.48±2.01 | – | – | – | – | – | –
2 | C/C(=N\N=C(N)N)c1cc(NC(=O)CCCCCCCCC(=O)Nc2cc(/C(C)=N/N=C(N)N)cc(/C(C)=N/N=C(N)N)c2)cc(/C(C)=N/N=C(N)N)c1.CS(=O)(=O)O.CS(=O)(=O)O.CS(=O)(=O)O.CS(=O)(=O)O [CPSI-2364] | – | – | – | – | – | – | – | – | – | – | – | – | – | strongly abrogated | None of the CPSI-2364 treated group differed significantly different from Sham+Placebo group | None of the CPSI-2364 treated group differed significantly from Sham+Placebo group | significant reduction of neutrophils | None of the CPSI-2364 treated groups differed significantly from the Sham+Placebo group | normalized GIT
